From the NIST ThermoML archive (doi:10.1021/je900966r)

Legend:
[1] = refractive index (Na D-line) (dimensionless); mn = molality of the nth substance listed, in mol/kg; details: 298.15 K, 101 kPa, Liquid, Standard Abbe refractometry
[2] = mn = molality of the nth substance listed, in mol/kg; details: 101 kPa, Liquid

O [water] + OC[C@@H](O)[C@@H](O)[C@H](O)[C@H](O)CO
Details	refractive index
[1], m2 = 0	1.3326

CCCO [propan-1-ol] + O
[1]
Details	refractive index
m1 = 0.1001	1.3331
m1 = 0.15	1.3338
m1 = 0.2	1.3341
m1 = 0.3	1.3344
m1 = 0.4	1.3349
m1 = 0.5	1.3353

mass density [kg/m3], [2]
Details	m1 = 0.1001	m1 = 0.15	m1 = 0.2	m1 = 0.3	m1 = 0.4	m1 = 0.5
293.15 K	996.609	996.479	996.336	995.903	994.27	993.364
298.15 K	995.441	995.293	995.163	994.694	993.072	992.148
303.15 K	994.029	993.828	993.747	993.242	991.629	990.687
308.15 K	992.397	992.237	992.113	991.569	989.962	989.004
313.15 K	990.564	990.399	990.278	989.694	988.093	987.114

CC(C)O [propan-2-ol] + O
[1]
Details	refractive index
m1 = 0.1	1.3329
m1 = 0.1501	1.3335
m1 = 0.1999	1.3338
m1 = 0.3	1.3341
m1 = 0.3998	1.3345
m1 = 0.5	1.335

mass density [kg/m3], [2]
Details	m1 = 0.1	m1 = 0.1501	m1 = 0.1999	m1 = 0.3	m1 = 0.3998	m1 = 0.5
293.15 K	996.544	995.924	995.4	994.591	993.922	993.065
298.15 K	995.386	994.764	994.22	993.429	992.857	991.893
303.15 K	993.986	993.358	992.795	992.018	991.441	990.472
308.15 K	992.365	991.731	991.148	990.384	989.702	988.826
313.15 K	990.542	989.901	989.299	988.545	987.816	986.979

OC[C@@H](O)[C@@H](O)[C@H](O)[C@H](O)CO [mannitol] + O
[1]
Details	refractive index
m1 = 0.1	1.3358
m1 = 0.1499	1.337
m1 = 0.1999	1.3385
m1 = 0.25	1.3396
m1 = 0.3	1.341
m1 = 0.35	1.3422
m1 = 0.4	1.343

mass density [kg/m3], [2]
Details	m1 = 0.1	m1 = 0.1499	m1 = 0.1999	m1 = 0.25	m1 = 0.3	m1 = 0.35	m1 = 0.4
293.15 K	1004.39	1007.5	1010.61	1013.69	1016.75	1019.74	1022.71
298.15 K	1003.21	1006.3	1009.4	1012.46	1015.48	1018.46	1021.43
303.15 K	1001.79	1004.87	1007.95	1010.98	1013.99	1016.97	1019.92
308.15 K	1000.12	1003.19	1006.23	1009.26	1012.25	1015.19	1018.13
313.15 K	998.283	1001.33	1004.36	1007.37	1010.33	1013.26	1016.18
